# Assays:
# Experiment in all cases: relative viability (nuclei count vs DMSO), 5 days (fraction); higher = more cells survive
# Bleomycin + Phenformin = compound: CC1=C(N=C(N=C1N)[C@H](CC(=O)N)NC[C@@H](C(=O)N)N)C(=O)N[C@@H]([C@H](C2=CN=CN2)OC3C(C(C(C(O3)CO)O)O)OC4C(C(C(C(O4)CO)O)OC(=O)N)O)C(=O)N[C@H](C)[C@H]([C@H](C)C(=O)N[C@@H]([C@@H](C)O)C(=O)NCCC5=NC(=CS5)C6=NC(=CS6)C(=O)NCCC[S+](C)C)O [Bleomycin] + N=C(N)NC(=N)NCCc1ccccc1 [Phenformin] (partner 250 µM); details: main component drawn
# Procedure, shortened: (§1)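 After 5 days of treatment, lung cancer cells in 1536-well plates were fixed and stained in a single step (final 0.05% Triton X-100, 1% formaldehyde, 1 ug/ml Hoechst) and their nuclei counted on 4× images. Treatment had been applied by pin tool the day after seeding as one drug alone or as a fixed anchor-drug dose with five library-drug doses (not always all listed) in √10 steps. Relative viability is the nuclei count of treated wells divided by that of vehicle wells, and values are medians of duplicate plates.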
# Etoposide + Lapatinib = compound: COc1cc([C@@H]2c3cc4c(cc3[C@@H](O[C@@H]3O[C@@H]5CO[C@@H](C)O[C@H]5[C@H](O)[C@H]3O)[C@H]3COC(=O)[C@H]23)OCO4)cc(OC)c1O [Etoposide] + CS(=O)(=O)CCNCc1ccc(-c2ccc3ncnc(Nc4ccc(OCc5cccc(F)c5)c(Cl)c4)c3c2)o1 [Lapatinib] (partner 2 µM)
# Procedure, shortened: as §1
# Bleomycin + Tozasertib = compound: CC1=C(N=C(N=C1N)[C@H](CC(=O)N)NC[C@@H](C(=O)N)N)C(=O)N[C@@H]([C@H](C2=CN=CN2)OC3C(C(C(C(O3)CO)O)O)OC4C(C(C(C(O4)CO)O)OC(=O)N)O)C(=O)N[C@H](C)[C@H]([C@H](C)C(=O)N[C@@H]([C@@H](C)O)C(=O)NCCC5=NC(=CS5)C6=NC(=CS6)C(=O)NCCC[S+](C)C)O [Bleomycin] + Cc1cc(Nc2cc(N3CCN(C)CC3)nc(Sc3ccc(NC(=O)C4CC4)cc3)n2)n[nH]1 [Tozasertib] (partner 0.1 µM); details: main component drawn
# Procedure, shortened: as §1
# Etoposide + Bortezomib = compound: COc1cc([C@@H]2c3cc4c(cc3[C@@H](O[C@@H]3O[C@@H]5CO[C@@H](C)O[C@H]5[C@H](O)[C@H]3O)[C@H]3COC(=O)[C@H]23)OCO4)cc(OC)c1O [Etoposide] + CC(C)C[C@H](NC(=O)[C@H](Cc1ccccc1)NC(=O)c1cnccn1)B(O)O [Bortezomib] (partner 0.002 µM)
# Procedure, shortened: as §1
Cell Line,relative viability (Bleomycin + Phenformin; first compound 0.01 µM),relative viability (Bleomycin + Phenformin; first compound 0.03162 µM),relative viability (Bleomycin + Phenformin; first compound 0.1 µM),relative viability (Bleomycin + Phenformin; first compound 0.3162 µM),relative viability (Bleomycin + Phenformin; first compound 1 µM),relative viability (Etoposide + Lapatinib; first compound 0.01 µM),relative viability (Etoposide + Lapatinib; first compound 0.03162 µM),relative viability (Etoposide + Lapatinib; first compound 0.1 µM),relative viability (Etoposide + Lapatinib; first compound 0.3162 µM),relative viability (Etoposide + Lapatinib; first compound 1 µM),relative viability (Bleomycin + Tozasertib; first compound 0.01 µM),relative viability (Bleomycin + Tozasertib; first compound 0.03162 µM),relative viability (Bleomycin + Tozasertib; first compound 0.1 µM),relative viability (Bleomycin + Tozasertib; first compound 0.3162 µM),relative viability (Bleomycin + Tozasertib; first compound 1 µM),relative viability (Etoposide + Bortezomib; first compound 0.01 µM),relative viability (Etoposide + Bortezomib; first compound 0.03162 µM),relative viability (Etoposide + Bortezomib; first compound 0.1 µM),relative viability (Etoposide + Bortezomib; first compound 0.3162 µM),relative viability (Etoposide + Bortezomib; first compound 1 µM)
NCI-H1975,0.322,0.316,0.253,0.162,0.123,0.857,1.04,0.739,0.528,0.214,0.485,0.466,0.42,0.152,0.0955,0.402,0.386,0.411,0.322,0.177
NCI-H1993,0.501,0.512,0.478,0.419,0.44,0.95,0.797,0.75,0.659,0.657,0.505,0.501,0.551,0.575,0.539,0.954,1.12,0.631,0.919,0.473
NCI-H2009,0.474,0.512,0.489,0.403,0.383,0.885,1.08,0.856,0.408,0.247,0.717,0.789,0.701,0.424,0.351,0.975,1.1,0.933,0.628,0.241
NCI-H2023,0.34,0.326,0.312,0.157,0.101,0.886,0.895,0.293,0.372,0.0709,0.237,0.283,0.222,0.116,0.109,0.975,1.15,0.456,0.46,0.123
NCI-H2085,0.599,0.595,0.55,0.329,0.306,0.777,0.73,0.534,0.599,0.372,0.758,0.74,0.783,0.539,0.428,1.08,1.08,0.953,0.674,0.354
NCI-H2087,,0.465,0.379,0.184,0.162,,0.83,0.912,0.551,0.278,,0.198,0.186,0.14,0.119,,0.888,0.864,0.641,0.302
NCI-H2126,0.55,0.536,0.559,0.349,0.303,0.784,0.756,0.52,0.595,0.383,0.736,0.865,0.861,0.421,0.32,1.19,1.09,0.801,1,0.659
NCI-H2228,0.314,0.312,0.301,0.185,0.147,0.84,1.05,0.846,0.703,0.138,0.216,0.248,0.218,0.12,0.137,1,1.17,0.731,0.717,0.22
NCI-H2347,0.374,0.437,0.222,0.255,0.286,1.13,0.835,0.547,0.406,0.422,0.451,0.44,0.52,0.221,0.413,1.06,1.32,0.716,0.572,0.515
NCI-H2405,0.333,0.399,0.383,0.263,0.262,1.16,1.24,0.746,0.77,0.275,0.703,0.758,0.682,0.475,0.398,0.987,1.05,0.753,0.531,0.746
NCI-H3122,0.341,0.379,0.5,0.194,0.198,1.09,0.998,0.97,0.91,0.451,0.337,0.281,0.324,0.177,0.166,1.04,0.986,1.04,0.816,0.47
PC-3 [JPC-3],0.476,0.511,0.475,0.364,0.336,0.432,0.487,0.344,0.475,0.374,0.799,0.813,0.781,0.537,0.492,0.795,0.756,0.93,0.775,0.67
PC-14,0.433,0.341,0.197,0.0557,0.0309,0.307,0.349,0.225,0.366,0.229,0.335,0.275,0.145,0.0771,0.05,0.9,1.08,0.918,0.687,0.666
RERF-LC-KJ,0.287,0.271,0.269,0.209,0.183,0.882,0.863,0.626,0.828,0.733,0.311,0.339,0.297,0.234,0.193,1.04,1.2,0.986,1.03,0.923
SK-LU-1,0.46,0.696,0.5,0.31,0.209,0.752,0.949,0.375,0.261,0.202,0.295,0.35,0.363,0.235,0.215,1.44,1.11,0.765,0.515,0.272
SW 1573,0.276,0.316,0.272,0.205,0.14,1.03,1.12,0.576,0.696,0.267,0.141,0.184,0.17,0.129,0.161,1,0.977,0.608,0.449,0.186
